Calls of active or inactive are those of the source. The rule behind the calls is not given here.

Data set [1] concerns the target Ephrin type-A receptor 6 (Homo sapiens) (UniProt Q9UF33). The data set is described as follows: Inhibition of human EPHA6 using poly[Glu:Tyr] (4:1) as substrate at 1 uM in presence of 32P-ATP by Hotspot assay relative to control; values are per cent of control.
In data set [2] the target is MAP kinase-interacting serine/threonine-protein kinase 1 (Homo sapiens) (UniProt Q9BUB5). The data set is described as follows: Inhibition of human MNK1 using myelin basic protein as substrate at 1 uM in presence of 32P-ATP by Hotspot assay relative to control; values are per cent of control.
MAP kinase-interacting serine/threonine-protein kinase 1 (Homo sapiens), sequence (Q9BUB5 whole entry, looked up): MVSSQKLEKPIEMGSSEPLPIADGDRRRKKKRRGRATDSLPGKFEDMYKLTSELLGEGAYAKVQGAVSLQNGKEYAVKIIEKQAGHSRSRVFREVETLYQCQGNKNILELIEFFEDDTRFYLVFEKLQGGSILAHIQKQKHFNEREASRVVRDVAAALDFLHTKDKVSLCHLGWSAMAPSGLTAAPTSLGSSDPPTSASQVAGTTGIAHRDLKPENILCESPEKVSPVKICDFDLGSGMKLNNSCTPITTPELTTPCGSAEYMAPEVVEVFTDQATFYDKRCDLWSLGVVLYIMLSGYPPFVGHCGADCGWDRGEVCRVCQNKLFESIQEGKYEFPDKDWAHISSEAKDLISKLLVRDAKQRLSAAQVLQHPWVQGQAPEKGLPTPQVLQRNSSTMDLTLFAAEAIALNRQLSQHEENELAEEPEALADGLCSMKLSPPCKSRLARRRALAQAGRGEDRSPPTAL
Data set [3] concerns the target Serine/threonine-protein kinase ULK1 (Homo sapiens) (UniProt O75385). The data set is described as follows: Inhibition of human ULK1 using myelin basic protein as substrate at 1 uM in presence of 32P-ATP by Hotspot assay relative to control; values are per cent of control.
For data set [4], the target named is Myosin-IIIb (Homo sapiens) (UniProt Q8WXR4). The data set is described as follows: Inhibition of human MYO3b using myelin basic protein as substrate at 1 uM in presence of 32P-ATP by Hotspot assay relative to control; values are per cent of control.
Another data set has as its system L929. As to the kind of experiment: Inhibition of TLR-3 induced necroptosis in mouse L929 cells assessed as increase in cell viability at higher concentration incubated for 18 hrs in presence of poly(I:C) by Cell Titer-Glo luminescent cell viability assay. The format is functional, cell-based.
For a further data set, the system named is SVEC4-10. As to the kind of experiment: Inhibition of DAI-induced necroptosis in MCMV M45mutRHIM infected mouse SVEC4-10 cells assessed as increase in cell viability at 10 uM incubated for 18 hrs in presence of zVAD by Cell Titer-Glo luminescent cell viability assay. The format is functional, cell-based.
Data set [5] deals with 3T3SA. As to the kind of experiment: Inhibition of TNF-alpha induced necroptosis in mouse 3T3SA cells at 10 uM incubated for 18 hrs in presence of zVAD by SYTOX green uptake assay. It counts as functional, cell-based.
The subject of data set [6] is 3T3SA. The data set is described as follows: Induction of apoptosis in mouse 3T3SA cells assessed as increase in caspase3/7 proteolytic activity incubated for 2.5 hrs. It counts as toxicity, cell-based.
The subject of data set [7] is 3T3SA. As to the kind of experiment: Induction of apoptosis in mouse 3T3SA cells assessed as membrane blebbing incubated for 2.5 hrs. The format is toxicity, cell-based.
The subject of data set [8] is 3T3SA. The data set is described as follows: Induction of apoptosis in mouse 3T3SA cells assessed as cell morphological changes incubated for 2.5 hrs by transmission electron microscopic analysis. The format is toxicity, cell-based.
Data set [9] has as its system 3T3SA. As to the kind of experiment: Induction of apoptosis in mouse 3T3SA cells transfected with RIP3 shRNA assessed as accumulation of cleaved caspase-3 by measuring percentage of cleaved caspase-3 positive cells measured after 8 hrs by immunoblot analysis (reference value: 11%). It counts as toxicity, cell-based.
Another data set concerns NIH3T3. The data set is described as follows: Induction of apoptosis in mouse NIH/3T3 cells expressing low level of […] at 1 to 10 uM incubated for 18 hrs by Cell Titer-Glo luminescent cell viability assay. The format is toxicity, cell-based. Conditions: nih3t3, 18 h, dose 1-10 µM.
Data set [10] concerns 3T3SA. As to the kind of experiment: Induction of apoptosis in mouse 3T3SA cells transfected with RIP3 shRNA at 10 uM incubated for 18 hrs by Cell Titer-Glo luminescent cell viability assay. The format is toxicity, cell-based.
Data set [11] has as its system MEF. The data set is described as follows: Induction of apoptosis in RIP3-/- MEF cells incubated for 18 hrs by Cell Titer-Glo luminescent cell viability assay. It counts as toxicity, cell-based. To be noted: mouse.
In data set [12] the test system is 3T3SA. As to the kind of experiment: Induction of apoptosis in mouse 3T3SA cells incubated for 18 hrs in presence of zVAD by Cell Titer-Glo luminescent cell viability assay. It counts as toxicity, cell-based.
The subject of data set [13] is 3T3SA. As to the kind of experiment: Induction of apoptosis in mouse 3T3SA cells incubated for 18 hrs in presence of zYVAD by Cell Titer-Glo luminescent cell viability assay. It counts as toxicity, cell-based.
Data set [14] has as its system 3T3SA. The data set is described as follows: Induction of apoptosis in mouse 3T3SA cells incubated for 18 hrs in presence of 3-MA by Cell Titer-Glo luminescent cell viability assay. It counts as toxicity, cell-based.
Data set [15] relates to 3T3SA. As to the kind of experiment: Induction of apoptosis in mouse 3T3SA cells assessed as increase in caspase 8 proteolytic activity incubated for 2.5 hrs. The format is toxicity, cell-based.
Data set [16] concerns 3T3SA. The data set is described as follows: Induction of apoptosis in mouse 3T3SA cells transfected with Caspase8 siRNA assessed as cleaved caspase 8 accumulation incubated for 2.5 hrs by immunoblot analysis. It counts as toxicity, cell-based.
Data set [17] deals with MEF. As to the kind of experiment: Induction of apoptosis in MEF cells expressing RIP1 K45A/K45A mutant incubated for 18 hrs by Cell Titer-Glo luminescent cell viability assay. It counts as toxicity, cell-based. To be noted: mouse.
The test system of data set [18] is MEF. The data set is described as follows: Inhibition of necroptosis in MEF cells expressing RIP1 K45A/K45A mutant incubated for 18 hrs by Cell Titer-Glo luminescent cell viability assay. It counts as functional, cell-based. To be noted: Mus musculus.
Data set [19] relates to MEF. As to the kind of experiment: Induction of apoptosis in Casp8-/- MEF cells incubated for 18 hrs by Cell Titer-Glo luminescent cell viability assay. It counts as toxicity, cell-based. Conditions: mouse.
The subject of data set [20] is MEF. As to the kind of experiment: Induction of apoptosis in cFLIPL-/- MEF cells transfected with cFLIPL expressing retrovirus incubated for 18 hrs by Cell Titer-Glo luminescent cell viability assay. Conditions: mouse. It counts as toxicity, cell-based.
Data set [21] has as its system MEF. The data set is described as follows: Induction of apoptosis in cFLIPL-/- MEF cells transfected with cFLIPL expressing retrovirus assessed as increase in caspase 8 proteolytic activity incubated for 4 hrs. It counts as toxicity, cell-based. To be noted: mouse.
In data set [22] the target is Nuclear factor NF-kappa-B complex (Homo sapiens) (UniProt Q00653+P19838+Q04206). The data set is described as follows: Activation of NFkappaB (unknown origin) transfected in mouse 3T3SA cells incubated for 2.5 hrs. The format is cell-based. Conditions: filed as activator.
Nuclear factor NF-kappa-B complex (Homo sapiens), sequence (P19838 whole entry, looked up): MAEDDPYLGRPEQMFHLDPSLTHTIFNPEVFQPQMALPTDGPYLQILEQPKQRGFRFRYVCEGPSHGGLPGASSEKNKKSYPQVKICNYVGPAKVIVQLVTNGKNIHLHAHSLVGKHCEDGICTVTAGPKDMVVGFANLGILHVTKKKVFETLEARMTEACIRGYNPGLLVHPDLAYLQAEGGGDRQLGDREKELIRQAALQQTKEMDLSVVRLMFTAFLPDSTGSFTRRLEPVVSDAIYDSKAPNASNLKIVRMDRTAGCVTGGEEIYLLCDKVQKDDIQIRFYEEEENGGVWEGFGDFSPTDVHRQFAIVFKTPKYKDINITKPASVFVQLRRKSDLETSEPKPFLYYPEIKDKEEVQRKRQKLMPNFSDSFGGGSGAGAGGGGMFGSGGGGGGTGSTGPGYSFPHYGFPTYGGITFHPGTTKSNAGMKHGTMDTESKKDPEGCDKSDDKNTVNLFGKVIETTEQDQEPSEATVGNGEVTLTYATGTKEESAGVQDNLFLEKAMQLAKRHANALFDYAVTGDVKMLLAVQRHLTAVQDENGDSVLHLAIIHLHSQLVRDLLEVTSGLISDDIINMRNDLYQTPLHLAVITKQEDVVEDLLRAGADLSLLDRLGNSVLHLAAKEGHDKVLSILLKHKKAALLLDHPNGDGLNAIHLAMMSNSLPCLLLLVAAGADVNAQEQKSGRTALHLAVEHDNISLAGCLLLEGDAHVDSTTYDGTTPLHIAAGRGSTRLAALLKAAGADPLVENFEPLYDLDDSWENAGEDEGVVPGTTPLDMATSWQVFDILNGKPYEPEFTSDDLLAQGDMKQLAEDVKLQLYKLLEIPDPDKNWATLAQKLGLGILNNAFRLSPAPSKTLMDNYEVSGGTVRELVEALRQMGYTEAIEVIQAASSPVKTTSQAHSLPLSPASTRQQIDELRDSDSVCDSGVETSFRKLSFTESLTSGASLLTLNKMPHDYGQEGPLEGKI
Nuclear factor NF-kappa-B complex (Homo sapiens), sequence (Q00653 whole entry, looked up): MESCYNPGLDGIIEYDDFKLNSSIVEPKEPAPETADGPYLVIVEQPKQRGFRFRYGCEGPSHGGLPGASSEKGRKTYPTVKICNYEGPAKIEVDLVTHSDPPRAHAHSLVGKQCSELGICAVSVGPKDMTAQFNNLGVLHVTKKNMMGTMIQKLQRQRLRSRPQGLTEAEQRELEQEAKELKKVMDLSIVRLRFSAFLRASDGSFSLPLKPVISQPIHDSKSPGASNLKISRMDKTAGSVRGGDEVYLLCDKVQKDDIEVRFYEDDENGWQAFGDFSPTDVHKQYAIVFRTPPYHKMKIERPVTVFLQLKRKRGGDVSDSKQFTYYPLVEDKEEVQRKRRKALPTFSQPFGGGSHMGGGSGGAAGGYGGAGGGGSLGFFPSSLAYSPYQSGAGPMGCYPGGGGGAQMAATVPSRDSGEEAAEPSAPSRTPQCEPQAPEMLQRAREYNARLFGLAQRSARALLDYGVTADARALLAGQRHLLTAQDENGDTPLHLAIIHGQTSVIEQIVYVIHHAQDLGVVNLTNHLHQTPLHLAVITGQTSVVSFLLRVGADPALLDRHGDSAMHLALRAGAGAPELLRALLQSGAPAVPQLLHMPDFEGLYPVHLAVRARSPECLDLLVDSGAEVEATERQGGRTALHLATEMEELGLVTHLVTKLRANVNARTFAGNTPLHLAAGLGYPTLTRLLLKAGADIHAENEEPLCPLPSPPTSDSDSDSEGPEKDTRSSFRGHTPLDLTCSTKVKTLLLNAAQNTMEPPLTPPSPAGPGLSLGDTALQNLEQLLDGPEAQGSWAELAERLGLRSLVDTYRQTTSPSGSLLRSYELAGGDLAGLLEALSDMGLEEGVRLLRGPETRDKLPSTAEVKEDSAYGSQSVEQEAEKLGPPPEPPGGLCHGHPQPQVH
Nuclear factor NF-kappa-B complex (Homo sapiens), sequence (Q04206 whole entry, looked up): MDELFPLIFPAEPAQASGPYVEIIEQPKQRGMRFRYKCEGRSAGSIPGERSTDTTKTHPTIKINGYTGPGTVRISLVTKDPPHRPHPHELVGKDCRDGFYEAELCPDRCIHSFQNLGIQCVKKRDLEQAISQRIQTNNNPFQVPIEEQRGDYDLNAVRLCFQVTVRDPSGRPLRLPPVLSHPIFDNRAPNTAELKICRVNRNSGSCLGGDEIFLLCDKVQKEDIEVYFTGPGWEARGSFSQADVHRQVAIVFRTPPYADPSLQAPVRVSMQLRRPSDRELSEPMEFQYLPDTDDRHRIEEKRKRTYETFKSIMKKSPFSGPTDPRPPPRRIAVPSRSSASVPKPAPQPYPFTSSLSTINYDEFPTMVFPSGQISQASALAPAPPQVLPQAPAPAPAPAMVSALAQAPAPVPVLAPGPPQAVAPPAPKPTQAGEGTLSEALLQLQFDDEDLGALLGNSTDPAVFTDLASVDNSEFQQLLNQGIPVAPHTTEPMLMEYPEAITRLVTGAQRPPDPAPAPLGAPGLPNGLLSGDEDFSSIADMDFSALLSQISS
For data set [23], the system named is 3T3SA. As to the kind of experiment: Induction of apoptosis in RIP3shRNA transfected mouse 3T3SA cells co-transfected with shRNA-resistant RIP3 K51A mutant pre-tranfected for 16 hrs followed by compound addition and measured after 18 hrs in presence of zVAD by Cell Titer-Glo luminescent cell viability assay. It counts as toxicity, cell-based.
Data set [24] concerns 3T3SA. As to the kind of experiment: Induction of apoptosis in RIP3shRNA transfected mouse 3T3SA cells co-transfected with shRNA-resistant RIP3 D161G mutant pre-tranfected for 16 hrs followed by compound addition and measured after 18 hrs in presence of zVAD by Cell Titer-Glo luminescent cell viability assay. It counts as toxicity, cell-based.
The subject of data set [25] is 3T3SA. The data set is described as follows: Induction of apoptosis in vICA expression plasmid transfected mouse 3T3SA cells co-transfected with shRNA-resistant RIP3 K51A mutant incubated for 12 hrs by Cell Titer-Glo luminescent cell viability assay. It counts as toxicity, cell-based.
The subject of data set [26] is 3T3SA. As to the kind of experiment: Induction of apoptosis in vICA expression plasmid transfected mouse 3T3SA cells co-transfected with shRNA-resistant RIP3 D143N mutant incubated for 12 hrs by Cell Titer-Glo luminescent cell viability assay. The format is toxicity, cell-based.
The subject of data set [27] is MEF. As to the kind of experiment: Induction of apoptosis in RIP3-/- MEF cells expressing dox-induced wildtype RIP3 assessed as RIP1-FADD association incubated for 1 hrs by immunoblot analysis. Conditions: mouse. The format is toxicity, cell-based.
The subject of data set [28] is MEF. As to the kind of experiment: Induction of apoptosis in RIP3-/- MEF cells expressing dox-induced wildtype RIP3 assessed as RIP1-RPI3 association incubated for 1 hrs by immunoblot analysis. The format is toxicity, cell-based. Conditions: mouse.
The subject of data set [29] is MEF. As to the kind of experiment: Induction of apoptosis in RIP3-/- MEF cells expressing dox-induced RIP3 K51A mutant assessed as RIP1-FADD association incubated for 1 hrs by immunoblot analysis. The format is toxicity, cell-based. Conditions: mouse.
Data set [30] relates to BMDM. As to the kind of experiment: Induction of apoptosis in mouse BMDM cells expressing wildtype RIP3 incubated for 18 hrs by Cell Titer-Glo luminescent cell viability assay. The format is toxicity, cell-based.
Data set [31] deals with BMDM. As to the kind of experiment: Induction of apoptosis in mouse BMDM cells expressing RIP3 K51A/K51A mutant incubated for 18 hrs by Cell Titer-Glo luminescent cell viability assay. The format is toxicity, cell-based.

Serine/threonine-protein kinase ULK1 (Homo sapiens), sequence (O75385 whole entry): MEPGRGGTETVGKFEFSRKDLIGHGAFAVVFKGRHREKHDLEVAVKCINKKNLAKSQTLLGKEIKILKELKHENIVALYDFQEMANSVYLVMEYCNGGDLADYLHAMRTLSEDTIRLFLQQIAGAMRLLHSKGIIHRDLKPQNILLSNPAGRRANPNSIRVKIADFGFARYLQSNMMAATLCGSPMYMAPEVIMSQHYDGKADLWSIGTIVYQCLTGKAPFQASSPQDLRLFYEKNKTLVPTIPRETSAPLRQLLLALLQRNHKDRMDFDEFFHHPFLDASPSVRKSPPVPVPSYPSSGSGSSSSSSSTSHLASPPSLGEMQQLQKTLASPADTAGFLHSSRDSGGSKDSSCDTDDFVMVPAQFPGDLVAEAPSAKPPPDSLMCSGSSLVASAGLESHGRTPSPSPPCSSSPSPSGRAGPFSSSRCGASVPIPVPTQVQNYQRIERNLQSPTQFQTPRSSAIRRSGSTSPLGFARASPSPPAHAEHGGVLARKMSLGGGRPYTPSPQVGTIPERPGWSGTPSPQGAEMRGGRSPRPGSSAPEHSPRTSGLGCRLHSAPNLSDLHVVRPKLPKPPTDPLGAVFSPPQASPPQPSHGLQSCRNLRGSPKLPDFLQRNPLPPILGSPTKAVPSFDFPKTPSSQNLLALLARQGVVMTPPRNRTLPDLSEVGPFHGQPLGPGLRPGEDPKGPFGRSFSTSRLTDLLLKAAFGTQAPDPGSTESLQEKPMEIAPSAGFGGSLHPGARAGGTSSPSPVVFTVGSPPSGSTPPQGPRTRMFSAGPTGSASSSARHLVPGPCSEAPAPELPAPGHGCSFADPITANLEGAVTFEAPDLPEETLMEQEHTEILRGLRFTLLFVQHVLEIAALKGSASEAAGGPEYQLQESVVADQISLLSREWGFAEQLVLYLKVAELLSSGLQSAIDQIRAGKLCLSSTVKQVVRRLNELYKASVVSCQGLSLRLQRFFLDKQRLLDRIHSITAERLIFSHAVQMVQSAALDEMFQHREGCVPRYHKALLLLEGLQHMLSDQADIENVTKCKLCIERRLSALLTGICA
Ephrin type-A receptor 6 (Homo sapiens), sequence (Q9UF33 whole entry): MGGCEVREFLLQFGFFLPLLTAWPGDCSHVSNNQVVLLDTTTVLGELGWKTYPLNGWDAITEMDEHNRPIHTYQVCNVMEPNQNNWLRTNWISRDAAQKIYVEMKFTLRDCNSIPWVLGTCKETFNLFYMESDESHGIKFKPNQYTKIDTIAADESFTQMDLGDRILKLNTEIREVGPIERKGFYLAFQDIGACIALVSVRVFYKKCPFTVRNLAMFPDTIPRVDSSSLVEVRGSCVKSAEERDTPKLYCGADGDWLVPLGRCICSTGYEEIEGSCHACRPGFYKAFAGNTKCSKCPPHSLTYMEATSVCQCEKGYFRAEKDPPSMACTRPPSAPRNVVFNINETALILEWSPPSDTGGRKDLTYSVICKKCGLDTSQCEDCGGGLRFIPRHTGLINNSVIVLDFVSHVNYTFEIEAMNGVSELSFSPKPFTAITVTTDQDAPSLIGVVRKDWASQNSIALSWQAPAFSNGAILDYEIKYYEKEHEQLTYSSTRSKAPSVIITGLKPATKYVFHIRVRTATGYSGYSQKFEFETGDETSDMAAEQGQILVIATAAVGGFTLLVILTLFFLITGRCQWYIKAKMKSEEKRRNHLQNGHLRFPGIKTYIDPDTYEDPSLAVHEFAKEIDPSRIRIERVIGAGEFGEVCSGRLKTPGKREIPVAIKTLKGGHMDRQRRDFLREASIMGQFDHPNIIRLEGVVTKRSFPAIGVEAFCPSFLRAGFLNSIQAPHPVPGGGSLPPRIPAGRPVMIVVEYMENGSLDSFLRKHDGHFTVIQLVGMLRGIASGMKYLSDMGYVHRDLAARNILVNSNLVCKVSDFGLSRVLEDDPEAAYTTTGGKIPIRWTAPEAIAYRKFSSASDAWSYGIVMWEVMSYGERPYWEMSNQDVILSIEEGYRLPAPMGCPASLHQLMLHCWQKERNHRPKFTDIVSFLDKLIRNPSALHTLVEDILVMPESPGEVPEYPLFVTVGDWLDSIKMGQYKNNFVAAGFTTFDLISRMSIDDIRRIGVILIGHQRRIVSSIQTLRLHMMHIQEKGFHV

Take `CNC(=O)c1ccc2c(c1)ncn2-c1ccc(CC(=O)OC(C)(C)C)cc1`: the residual activity in data set [1] turned out to be 88.9%; in data set [2], 99.7%; in data set [3], 104%; in data set [4], 92.4%.
Take `CC(C)S(=O)(=O)c1ccc2nccc(Nc3ccc4scnc4c3)c2c1`: the inhibition entry in the data set on L929 was “inactive”. Besides, the inhibition result with SVEC4-10 and in the data set on MEF [18] was “Active” in each case. The outcome (in the data set on 3T3SA [5]; in [22]) was Active. Besides, the Activity entry is listed as “Toxic” in the data set with 3T3SA [6]; “Toxic” with 3T3SA [7]; “Toxic” in the data set with 3T3SA [8]; 12.1% in the data set on 3T3SA [9]; “Non-Toxic” with NIH3T3; “Non-Toxic” with 3T3SA [10]. Besides, the Activity entry with MEF [11] is “Non-Toxic”; with 3T3SA [12] it was “Non-Toxic”; with 3T3SA [13] it was “Toxic”; in the data set on 3T3SA [14], “Toxic”; in the data set on 3T3SA [15] it was “Toxic”; in the data set with 3T3SA [16], “Non-Toxic”. Moreover, the Activity result in the data set on MEF [17] is reported as “Non-Toxic”; with MEF [19], “Non-Toxic”; in the data set on MEF [20], “Toxic”; in the data set with MEF [21], “Toxic”; with 3T3SA [23] it was “Non-Toxic”; with 3T3SA [24], “Non-Toxic”. Further, the Activity result in the data set on 3T3SA [25] is on record as “Non-Toxic”; with 3T3SA [26], “Non-Toxic”; in the data set on MEF [27], “Toxic”; in the data set with MEF [28], “Toxic”; with MEF [29], “Toxic”; in the data set on BMDM [30], “Toxic”. For the same molecule, the Activity entry in the data set on BMDM [31] is listed as “Toxic”.

Source of the values: ChEMBL document CHEMBL5649166, “RIP3 induces apoptosis independent of pronecrotic kinase activity” (Mol Cell, 2014).
